Laboratory results as given in US20250282768A1 (Janssen Pharmaceutica NV, priority 2022, published 2025).

Tested on: p-IKKa levels in L363 (NIK translocated multiple myeloma) cells
Experiment: Assay 2: Effect of compounds on p-IKKa levels in L363 (NIK translocated multiple myeloma) cells
Format: cell-based
Settings: Homo sapiens, L-363, 6 h, read-out: Assay 2 IC50 (nM), p-IKKa (Ser 176/180) in BAFF stimulated L363 cells with MG132, 6 h; average if tested more than once
Outline: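 L363 cells incubated overnight ± 250 ng/ml BAFF, then 6 h at 37 °C with compound (0.3% DMSO) ± 10 μM MG132. Lysates assayed for p-IKKa (Ser176/180) by AlphaLISA SureFire. IC50 from sigmoidal fit of % inhibition normalized to BAFF/MG132-stimulated and unstimulated controls.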

Row | Structure (SMILES) | IC50
1 | C[C@H](Nc1nccc(-c2cccc(-c3cc([C@]4(O)CCN(C)C4=O)on3)n2)n1)C(=O)N1CCCCC1 [Example 180, (R)-3-Hydroxy-1-methyl-3-(3-(6-(2-(((S)-1-oxo-1-(piperidin-1-yl)propan-2-yl)amino)pyrimidin-4-yl)pyridin-2-yl)isoxazol-5-yl)pyrrolidin-2-one] | 50 to 500 nM
2 | Cc1cc(Nc2nccc(-c3cccc(-c4cc([C@]5(O)CCN(C)C5=O)on4)n3)n2)cc(C)n1 [Example 283, (R)-3-(3-(6-(2-((2,6-Dimethylpyridin-4-yl)amino)pyrimidin-4-yl)pyridin-2-yl)isoxazol-5-yl)-3-hydroxy-1-methylpyrrolidin-2-one] | < 50 nM
3 | COc1cn(C)nc1Nc1nccc(-c2cccc(-c3cc([C@]4(O)CCN(C)C4=O)on3)c2)n1 [Example 16, (R)-3-Hydroxy-3-(3-(3-(2-((4-methoxy-1-methyl-1H-pyrazol-3-yl)amino)pyrimidin-4-yl)phenyl)isoxazol-5-yl)-1-methylpyrrolidin-2-one] | > 500 nM
4 | Cc1nccc(Nc2nccc(-c3cccc(-c4cc([C@]5(O)CCN(C)C5=O)on4)n3)n2)c1F [Example 334, (R)-3-(3-(6-(2-((3-Fluoro-2-methylpyridin-4-yl)amino)pyrimidin-4-yl)pyridin-2-yl)isoxazol-5-yl)-3-hydroxy-1-methylpyrrolidin-2-one] | < 50 nM
5 | CN1CC[C@@](O)(c2cc(-c3cccc(-c4ccnc(N[C@H]5CC[C@@H](O)C5)n4)c3)no2)C1=O [Example 14, (R)-3-Hydroxy-3-(3-(3-(2-(((1 S,3R)-3-hydroxycyclopentyl)amino)pyrimidin-4-yl)phenyl)isoxazol-5-yl)-1-methylpyrrolidin-2-one] | > 500 nM
6 | CC1CCCCC1Nc1nccc(-c2cccc(-c3cc([C@]4(O)CCN(C)C4=O)on3)n2)n1 (mixture of isomers) [Example 341, (3R)-3-Hydroxy-1-methyl-3-(3-(6-(2-(((rac)-2-methylcyclohexyl)amino)pyrimidin-4-yl)pyridin-2-yl)isoxazol-5-yl)pyrrolidin-2-one] | 50 to 500 nM
7 | COc1cccnc1Nc1nccc(-c2cccc(-c3cc([C@]4(O)CCN(C)C4=O)on3)n2)n1 [Example 317, (R)-3-Hydroxy-3-(3-(6-(2-((3-methoxypyridin-2-yl)amino)pyrimidin-4-yl)pyridin-2-yl)isoxazol-5-yl)-1-methylpyrrolidin-2-one] | > 500 nM
8 | Cc1c(Nc2nccc(-c3cccc(-c4cc([C@@]5(O)CCN(C)C5=O)on4)n3)n2)cnn1C1CCOCC1 [Example 187, (S)-3-Hydroxy-1-methyl-3-(3-(6-(2-((5-methyl-1-(tetrahydro-2H-pyran-4-yl)-1H-pyrazol-4-yl)amino)pyrimidin-4-yl)pyridin-2-yl)isoxazol-5-yl)pyrrolidin-2-one] | < 50 nM
9 | CN1CC[C@@](O)(c2cc(-c3cccc(-c4ccnc(Nc5cnc(CO)cn5)n4)n3)no2)C1=O [Example 303, (R)-3-Hydroxy-3-(3-(6-(2-((5-(hydroxymethyl)pyrazin-2-yl)amino)pyrimidin-4-yl)pyridin-2-yl)isoxazol-5-yl)-1-methylpyrrolidin-2-one] | 50 to 500 nM
10 | Cc1cnccc1Nc1nccc(-c2cccc(-c3cc([C@]4(O)CCN(C)C4=O)on3)n2)n1 [Example 246, (R)-3-Hydroxy-1-methyl-3-(3-(6-(2-((3-methylpyridin-4-yl)amino)pyrimidin-4-yl)pyridin-2-yl)isoxazol-5-yl)pyrrolidin-2-one] | > 500 nM
11 | CN1CC[C@@](O)(c2cc(-c3cccc(-c4ccnc(Nc5cc6n(n5)CCN(CC(F)(F)F)C6)n4)n3)no2)C1=O [Example 431, (R)-3-Hydroxy-1-methyl-3-(3-(6-(2-((5-(2,2,2-trifluoroethyl)-4,5,6,7-tetrahydropyrazolo[1,5-a]pyrazin-2-yl)amino)pyrimidin-4-yl)pyridin-2-yl)isoxazol-5-yl)pyrrolidin-2-one] | 50 to 500 nM
12 | CN1CC[C@@H](n2cc(Nc3nccc(-c4cccc(-c5cc([C@]6(O)CCN(C)C6=O)on5)n4)n3)cn2)[C@H](F)C1 (single isomer, unassigned) [Example 202] | < 50 nM
13 | CN1CC[C@@](O)(c2cc(-c3cccc(-c4ccnc(NC5CCN(S(=O)(=O)C6CC6)CC5)n4)n3)no2)C1=O [Example 447, (R)-3-(3-(6-(2-((1-(Cyclopropylsulfonyl)piperidin-4-yl)amino)pyrimidin-4-yl)pyridin-2-yl)isoxazol-5-yl)-3-hydroxy-1-methylpyrrolidin-2-one] | 50 to 500 nM
14 | Cc1cc(Nc2nccc(-c3cccc(-c4cc([C@]5(O)CCN(C)C5=O)no4)n3)n2)ccn1 [Example 213, (R)-3-Hydroxy-1-methyl-3-(5-(6-(2-((2-methylpyridin-4-yl)amino)pyrimidin-4-yl)pyridin-2-yl)isoxazol-3-yl)pyrrolidin-2-one] | 50 to 500 nM
15 | CCn1ncc(Nc2nccc(-c3cccc(-c4cc([C@]5(O)CCN(C)C5=O)on4)n3)n2)c1C [Example 217, (R)-3-(3-(6-(2-((1-Ethyl-5-methyl-1H-pyrazol-4-yl)amino)pyrimidin-4-yl)pyridin-2-yl)isoazol-5-yl)-3-hydroxy-1-methylpyrrolidin-2-one] | < 50 nM
16 | CN1C(=O)[C@](O)(c2cc(-c3cccc(-c4ccnc(Nc5cnn(C)c5)n4)n3)no2)[C@H]2C[C@H]21 [Example 240, (1R,4R,5S)-4-Hydroxy-2-methyl-4-(3-(6-(2-((1-methyl-1H-pyrazol-4-yl)amino)pyrimidin-4-yl)pyridin-2-yl)isoxazol-5-yl)-2-azabicyclo[3.1.0]hexan-3-one] | 50 to 500 nM
17 | CN(C)Cc1cc(Nc2nccc(-c3cccc(-c4cc([C@]5(O)CCN(C)C5=O)on4)n3)n2)nn1C [Example 428, (R)-3-(3-(6-(2-((5-((Dimethylamino)methyl)-1-methyl-1H-pyrazol-3-yl)amino)pyrimidin-4-yl)pyridin-2-yl)isoxazol-5-yl)-3-hydroxy-1-methylpyrrolidin-2-one] | 50 to 500 nM
18 | CN1CC[C@](O)(c2cc(-c3cccc(-c4ccnc(Nc5ccn(C)n5)n4)n3)[nH]n2)C1=O (single isomer, unassigned) [Example 84] | > 500 nM
19 | CN1CC[C@@](O)(c2cc(-c3cccc(-c4ccnc(Nc5cn(C)nn5)n4)n3)no2)C1=O [Example 65, (R)-3-Hydroxy-1-methyl-3-(3-(6-(2-((1-methyl-1H-1,2,3-triazol-4-yl)amino)pyrimidin-4-yl)pyridin-2-yl)isoxazol-5-yl)pyrrolidin-2-one] | 50 to 500 nM
20 | C[C@@H](Nc1nccc(-c2cccc(-c3cc([C@]4(O)CCN(C)C4=O)on3)n2)n1)c1ccncc1 (single isomer, unassigned) [Example 154] | 50 to 500 nM
21 | CN1CC[C@@](O)(c2cc(-c3cccc(-c4ccnc(N[C@H](CO)c5ccccn5)n4)n3)no2)C1=O [Example 388, (R)-3-Hydroxy-3-(3-(6-(2-(((S)-2-hydroxy-1-(pyridin-2-yl)ethyl)amino)pyrimidin-4-yl)pyridin-2-yl)isoxazol-5-yl)-1-methylpyrrolidin-2-one] | 50 to 500 nM
22 | CN1CC[C@@](O)(c2cc(-c3cccc(-c4ccnc(Nc5cnn(C)c5C5CC5)n4)n3)no2)C1=O [Example 228, (R)-3-(3-(6-(2-((5-Cyclopropyl-1-methyl-1H-pyrazol-4-yl)amino)pyrimidin-4-yl)pyridin-2-yl)isoxazol-5-yl)-3-hydroxy-1-methylpyrrolidin-2-one] | < 50 nM
